Source: ChEMBL document CHEMBL3431459, “Roche carnitine palmitoyltransferase modulator screening data (supplementary data associated with the publication CHEMBL2216752)”
In brackets after ≈: the same amount, converted by molar mass.

Legend:
[1] = SUPPLEMENTARY: PAMPA permeability assay; assay type: physicochemical; conditions: read-out: Permeability
[2] = target: T1, Carnitine O-palmitoyltransferase 1, muscle isoform (Homo sapiens, UniProt Q92523); assay: SUPPLEMENTARY: Inhibition of Carnitine palmitoyltransferase 1, muscle isoform; set-up: species or system Muscle tissue
T1 sequence (Q92523 whole entry): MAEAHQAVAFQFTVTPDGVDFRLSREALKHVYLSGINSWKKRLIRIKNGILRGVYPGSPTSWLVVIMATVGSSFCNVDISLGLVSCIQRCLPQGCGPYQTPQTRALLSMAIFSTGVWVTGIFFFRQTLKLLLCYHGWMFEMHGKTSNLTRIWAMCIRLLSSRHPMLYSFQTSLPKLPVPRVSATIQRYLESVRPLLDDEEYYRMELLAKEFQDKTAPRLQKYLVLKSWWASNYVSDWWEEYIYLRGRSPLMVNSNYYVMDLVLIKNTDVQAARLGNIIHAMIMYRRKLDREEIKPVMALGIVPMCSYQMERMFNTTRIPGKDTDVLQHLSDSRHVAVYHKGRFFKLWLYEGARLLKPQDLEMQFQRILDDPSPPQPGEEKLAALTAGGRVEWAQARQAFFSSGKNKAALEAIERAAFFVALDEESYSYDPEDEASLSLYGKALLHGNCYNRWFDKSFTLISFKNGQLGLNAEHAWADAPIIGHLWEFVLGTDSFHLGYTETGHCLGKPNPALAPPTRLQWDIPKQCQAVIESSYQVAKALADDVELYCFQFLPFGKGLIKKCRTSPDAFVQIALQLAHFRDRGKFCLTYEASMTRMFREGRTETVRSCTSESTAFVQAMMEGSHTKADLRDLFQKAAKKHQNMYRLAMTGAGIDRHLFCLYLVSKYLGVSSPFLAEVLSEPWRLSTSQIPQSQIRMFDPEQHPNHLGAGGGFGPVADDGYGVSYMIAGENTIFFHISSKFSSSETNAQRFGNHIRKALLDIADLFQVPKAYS

[3] = target: T2, Carnitine O-palmitoyltransferase 2, mitochondrial (Rattus norvegicus, UniProt P18886); assay: (§1) SUPPLEMENTARY: Inhibition of Carnitine palmitoyltransferase 2
T2 sequence (P18886 whole entry): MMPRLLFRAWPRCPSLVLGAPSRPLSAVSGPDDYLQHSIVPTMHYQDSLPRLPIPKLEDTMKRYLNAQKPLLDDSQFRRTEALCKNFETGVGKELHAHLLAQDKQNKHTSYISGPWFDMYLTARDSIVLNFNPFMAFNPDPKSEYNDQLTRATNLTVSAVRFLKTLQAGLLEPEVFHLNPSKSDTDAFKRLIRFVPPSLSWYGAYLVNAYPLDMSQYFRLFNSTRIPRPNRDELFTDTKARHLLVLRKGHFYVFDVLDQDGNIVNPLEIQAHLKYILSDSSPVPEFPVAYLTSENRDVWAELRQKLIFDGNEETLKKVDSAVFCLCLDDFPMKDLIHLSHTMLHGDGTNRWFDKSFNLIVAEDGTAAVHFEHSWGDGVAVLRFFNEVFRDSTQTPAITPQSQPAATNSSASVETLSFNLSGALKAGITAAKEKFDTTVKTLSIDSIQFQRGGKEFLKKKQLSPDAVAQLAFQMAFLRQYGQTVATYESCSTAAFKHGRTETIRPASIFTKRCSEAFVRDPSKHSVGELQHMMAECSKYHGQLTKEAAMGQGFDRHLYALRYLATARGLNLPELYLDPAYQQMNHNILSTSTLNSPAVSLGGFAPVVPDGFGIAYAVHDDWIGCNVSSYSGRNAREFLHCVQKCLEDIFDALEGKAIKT

[4] = target: T3, Carnitine O-palmitoyltransferase 2, mitochondrial (Homo sapiens, UniProt P23786); assay: as §1
T3 sequence (P23786 whole entry): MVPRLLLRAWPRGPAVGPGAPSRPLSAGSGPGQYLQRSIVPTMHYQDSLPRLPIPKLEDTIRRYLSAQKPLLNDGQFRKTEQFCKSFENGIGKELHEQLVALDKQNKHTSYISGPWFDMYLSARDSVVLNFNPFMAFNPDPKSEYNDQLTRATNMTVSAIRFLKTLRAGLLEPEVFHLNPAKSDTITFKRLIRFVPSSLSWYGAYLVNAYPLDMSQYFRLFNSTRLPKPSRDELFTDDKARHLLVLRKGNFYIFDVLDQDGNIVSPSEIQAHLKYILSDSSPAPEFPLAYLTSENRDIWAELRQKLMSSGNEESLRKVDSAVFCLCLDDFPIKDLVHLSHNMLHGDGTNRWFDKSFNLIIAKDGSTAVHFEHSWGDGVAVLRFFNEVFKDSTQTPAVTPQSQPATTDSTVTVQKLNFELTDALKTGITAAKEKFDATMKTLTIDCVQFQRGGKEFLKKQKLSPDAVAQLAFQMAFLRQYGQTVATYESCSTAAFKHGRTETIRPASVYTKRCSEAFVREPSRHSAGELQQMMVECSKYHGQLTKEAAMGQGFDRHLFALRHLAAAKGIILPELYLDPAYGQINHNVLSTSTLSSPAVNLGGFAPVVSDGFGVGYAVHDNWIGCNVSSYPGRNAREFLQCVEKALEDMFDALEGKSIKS

[5] = target: T4, Carnitine O-palmitoyltransferase 1, liver isoform (Homo sapiens, UniProt P50416); assay: (§2) SUPPLEMENTARY: Inhibition of Carnitine palmitoyltransferase 1, liver isoform
T4 sequence (P50416 whole entry): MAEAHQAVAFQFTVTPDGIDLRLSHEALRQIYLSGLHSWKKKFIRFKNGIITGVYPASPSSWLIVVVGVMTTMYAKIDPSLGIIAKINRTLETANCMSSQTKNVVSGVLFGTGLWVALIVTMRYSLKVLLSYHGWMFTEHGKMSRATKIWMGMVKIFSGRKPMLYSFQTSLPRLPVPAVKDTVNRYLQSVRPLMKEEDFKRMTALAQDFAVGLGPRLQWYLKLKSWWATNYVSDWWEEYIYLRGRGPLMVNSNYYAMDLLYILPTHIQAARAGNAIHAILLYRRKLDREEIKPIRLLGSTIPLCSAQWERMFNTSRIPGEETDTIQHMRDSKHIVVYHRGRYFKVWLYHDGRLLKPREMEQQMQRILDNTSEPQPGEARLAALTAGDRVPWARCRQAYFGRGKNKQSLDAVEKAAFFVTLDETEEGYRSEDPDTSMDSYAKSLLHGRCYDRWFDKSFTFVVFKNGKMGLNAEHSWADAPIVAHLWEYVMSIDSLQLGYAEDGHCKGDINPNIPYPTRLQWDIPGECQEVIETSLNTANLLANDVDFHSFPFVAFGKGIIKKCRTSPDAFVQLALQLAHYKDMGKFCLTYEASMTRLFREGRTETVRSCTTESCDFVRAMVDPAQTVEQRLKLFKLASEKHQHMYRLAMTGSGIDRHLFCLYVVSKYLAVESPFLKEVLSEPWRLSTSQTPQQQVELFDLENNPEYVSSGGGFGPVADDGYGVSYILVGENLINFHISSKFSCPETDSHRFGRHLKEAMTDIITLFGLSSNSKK

[6] = target: T5, Carnitine O-palmitoyltransferase 1, liver isoform (Rattus norvegicus, UniProt P32198); assay: as §2
T5 sequence (P32198 whole entry): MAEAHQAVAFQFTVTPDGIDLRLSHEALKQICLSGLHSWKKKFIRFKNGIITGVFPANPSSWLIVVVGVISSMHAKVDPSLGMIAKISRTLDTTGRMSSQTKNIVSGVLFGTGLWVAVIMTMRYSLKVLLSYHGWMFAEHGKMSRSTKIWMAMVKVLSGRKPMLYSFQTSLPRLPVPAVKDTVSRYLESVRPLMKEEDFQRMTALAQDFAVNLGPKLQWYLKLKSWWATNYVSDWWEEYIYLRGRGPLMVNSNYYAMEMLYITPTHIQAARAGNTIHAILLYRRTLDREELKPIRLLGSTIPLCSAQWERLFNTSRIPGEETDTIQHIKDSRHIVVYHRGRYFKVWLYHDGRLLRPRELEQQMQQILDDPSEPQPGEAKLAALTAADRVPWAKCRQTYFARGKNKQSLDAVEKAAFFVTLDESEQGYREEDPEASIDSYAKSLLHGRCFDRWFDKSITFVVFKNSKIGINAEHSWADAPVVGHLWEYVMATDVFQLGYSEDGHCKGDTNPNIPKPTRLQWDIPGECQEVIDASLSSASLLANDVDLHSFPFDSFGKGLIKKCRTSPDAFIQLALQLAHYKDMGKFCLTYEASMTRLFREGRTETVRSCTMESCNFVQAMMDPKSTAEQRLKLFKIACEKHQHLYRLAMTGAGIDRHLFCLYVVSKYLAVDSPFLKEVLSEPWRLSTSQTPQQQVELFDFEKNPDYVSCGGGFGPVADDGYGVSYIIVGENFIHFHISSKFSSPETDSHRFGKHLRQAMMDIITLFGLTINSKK

[7] = SUPPLEMENTARY: Lyophilisation Solubility Assay (LYSA); assay type: physicochemical; conditions: read-out: Kinetic_solubility

| Papp [1] | IC50 [2] | IC50 [3] | IC50 [4] | IC50 [5] | IC50 [6] | solubility kinetic [7] | SMILES |
| --- | --- | --- | --- | --- | --- | --- | --- |
| 1.14 ×10⁻⁶ cm/s | 24200 nM | > 100000 nM | > 100000 nM | 170 nM | 90.5 nM | 13 µg/mL (≈ 28.5 µM) | COc1ccc(Cl)cc1Cn1ccc2ccc(C(=O)Nc3nc(CC(=O)O)cs3)cc21 |
| 1.23 ×10⁻⁶ cm/s | 6170 nM | 81600 nM | 72600 nM | 192 nM | 932 nM | 31 µg/mL (≈ 72.9 µM) | Cc1cc(C(=O)Nc2ccc(-c3nnn[nH]3)cc2)nn1Cc1ccc(OC(F)F)cc1 |
| 2.4 ×10⁻⁶ cm/s | 2240 nM | 1660 nM | 672 nM | 62.2 nM | 21 nM | 12 µg/mL (≈ 24 µM) | COc1ccc(Cl)cc1S(=O)(=O)N1CC(C)c2ccc(C(=O)Nc3ccc(C(=O)O)cc3)cc21 (stereo unspecified) |
| 1.68 ×10⁻⁶ cm/s | 21100 nM | 4330 nM | 554 nM | 46.3 nM | 41.3 nM | 2 µg/mL (≈ 3.87 µM) | COc1ccc(Cl)cc1S(=O)(=O)N1CCOc2c(C)cc(C(=O)Nc3ccc(C(=O)O)cc3)cc21 |
| 0.13 ×10⁻⁶ cm/s | 1130 nM | 7400 nM | 5070 nM | 43.4 nM | 21.4 nM | 7 µg/mL (≈ 16 µM) | Cn1cc(Sc2cccc(Cl)c2)c2cc(C(=O)Nc3ccc(C(=O)O)cc3)ccc21 |
| 5.3 ×10⁻⁶ cm/s | > 100000 nM | 35200 nM | 19500 nM | 108 nM | 250 nM | 106 µg/mL (≈ 279 µM) | Nc1cc(-c2noc([C@H]3CCCCN3C(=O)COc3ccccc3)n2)ccn1 |
| 2.65 ×10⁻⁶ cm/s | > 100000 nM | 5230 nM | 2320 nM | 77.1 nM | 156 nM | 103 µg/mL (≈ 180 µM) | COc1ccc(Cl)cc1S(=O)(=O)N1CCOc2c1cc(C(=O)Nc1ccc(C(=O)O)cc1)cc2C(F)(F)F |
| 3.3 ×10⁻⁶ cm/s | 932 nM | > 100000 nM | > 100000 nM | 175 nM | 106 nM | 4 µg/mL (≈ 7.53 µM) | COc1ccc(Cl)cc1S(=O)(=O)N1CCOc2ccc(C(=O)Nc3ccc(CCC(=O)O)cc3)cc21 |
